Data taken from the NIST ThermoML archive (doi:10.1021/je049919e).

What was measured:
[1] = Ring tensiometer
[2] = xn = mol fraction of the nth substance listed; conditions: Ring tensiometer

OCCO [1,2-ethanediol]
[1]
Conditions | surface tension liquid-gas [mN/m]
293.15 K | 48.55
298.15 K | 48.11
303.15 K | 47.58
308.15 K | 47.14
313.15 K | 46.79
318.15 K | 46.29
323.15 K | 45.99

OCCO [1,2-ethanediol] + CC1CCC(O)CC1
[2], x2 = 0
Conditions | surface tension liquid-gas [mN/m]
293.15 K | 48.55
298.15 K | 48.11
303.15 K | 47.58
308.15 K | 47.14
313.15 K | 46.79
318.15 K | 46.29
323.15 K | 45.99

OCCO [1,2-ethanediol] + CC1CCCC(O)C1
[2], x2 = 0
Conditions | surface tension liquid-gas [mN/m]
293.15 K | 48.55
298.15 K | 48.11
303.15 K | 47.58
308.15 K | 47.14
313.15 K | 46.79
318.15 K | 46.29
323.15 K | 45.99

OCCO [1,2-ethanediol] + CC1CCCCC1O
[2], x2 = 0
Conditions | surface tension liquid-gas [mN/m]
293.15 K | 48.55
298.15 K | 48.11
303.15 K | 47.58
308.15 K | 47.14
313.15 K | 46.79
318.15 K | 46.29
323.15 K | 45.99

CC1CCCCC1O (stereo not given) [2-methylcyclohexanol]
[1]
Conditions | surface tension liquid-gas [mN/m]
293.15 K | 31.01
298.15 K | 30.57
303.15 K | 30.19
308.15 K | 29.81
313.15 K | 29.37
318.15 K | 28.98
323.15 K | 28.57

CC1CCCCC1O (stereo not given) [2-methylcyclohexanol] + OCCO
surface tension liquid-gas [mN/m], [2]
Conditions | 293.15 K | 298.15 K | 303.15 K | 308.15 K | 313.15 K | 318.15 K | 323.15 K
x1 = 0.04 | 40.61 | 40.3 | 39.94 | 39.67 | 39.4 | 39.13 | 38.89
x1 = 0.105 | 36.13 | 35.89 | 35.62 | 35.32 | 35.07 | 34.81 | 34.56
x1 = 0.2 | 34.46 | 34.17 | 33.85 | 33.55 | 33.26 | 32.98 | 32.68
x1 = 0.307 | 33.49 | 33.2 | 32.88 | 32.58 | 32.22 | 31.94 | 31.63
x1 = 0.399 | 32.94 | 32.61 | 32.26 | 31.96 | 31.62 | 31.31 | 30.97
x1 = 0.514 | 32.38 | 32.03 | 31.68 | 31.33 | 30.98 | 30.69 | 30.36
x1 = 0.553 | 32.22 | 31.87 | 31.54 | 31.19 | 30.81 | 30.49 | 30.13
x1 = 0.76 | 31.72 | 31.36 | 30.97 | 30.61 | 30.29 | 29.91 | 29.52
x1 = 0.791 | 31.51 | 31.1 | 30.73 | 30.38 | 30 | 29.59 | 29.24
x1 = 0.892 | 31.2 | 30.78 | 30.39 | 30.05 | 29.67 | 29.27 | 28.87
x1 = 1 | 31.01 | 30.57 | 30.19 | 29.81 | 29.37 | 28.98 | 28.57

CC1CCCC(O)C1 (stereo not drawn) [3-methyl-1-cyclohexanol, (cis+trans)]
[1]
Conditions | surface tension liquid-gas [mN/m]
293.15 K | 27.82
298.15 K | 27.48
303.15 K | 27.12
308.15 K | 26.76
313.15 K | 26.4
318.15 K | 26.06
323.15 K | 25.7

CC1CCCC(O)C1 (stereo not drawn) [3-methyl-1-cyclohexanol, (cis+trans)] + OCCO
surface tension liquid-gas [mN/m], [2]
Conditions | 293.15 K | 298.15 K | 303.15 K | 308.15 K | 313.15 K | 318.15 K | 323.15 K
x1 = 0.05 | 36.72 | 36.51 | 36.29 | 36.07 | 35.88 | 35.66 | 35.44
x1 = 0.097 | 34.08 | 33.87 | 33.67 | 33.46 | 33.26 | 33.08 | 32.89
x1 = 0.258 | 31.57 | 31.25 | 30.97 | 30.7 | 30.42 | 30.15 | 29.91
x1 = 0.329 | 30.94 | 30.6 | 30.32 | 30.01 | 29.75 | 29.48 | 29.17
x1 = 0.389 | 30.57 | 30.23 | 29.98 | 29.65 | 29.38 | 29.09 | 28.76
x1 = 0.535 | 29.84 | 29.51 | 29.19 | 28.86 | 28.57 | 28.28 | 27.96
x1 = 0.623 | 29.39 | 29.05 | 28.75 | 28.43 | 28.14 | 27.82 | 27.42
x1 = 0.768 | 28.85 | 28.47 | 28.16 | 27.8 | 27.46 | 27.18 | 26.84
x1 = 0.864 | 28.43 | 28.02 | 27.68 | 27.34 | 27.03 | 26.69 | 26.33
x1 = 0.899 | 28.24 | 27.9 | 27.56 | 27.24 | 26.85 | 26.5 | 26.18
x1 = 1 | 27.82 | 27.48 | 27.12 | 26.76 | 26.4 | 26.06 | 25.7

CC1CCC(O)CC1 (stereo not given) [4-methylcyclohexanol]
[1]
Conditions | surface tension liquid-gas [mN/m]
293.15 K | 27.63
298.15 K | 27.3
303.15 K | 26.98
308.15 K | 26.61
313.15 K | 26.31
318.15 K | 25.96
323.15 K | 25.63

CC1CCC(O)CC1 (stereo not given) [4-methylcyclohexanol] + OCCO
surface tension liquid-gas [mN/m], [2]
Conditions | 293.15 K | 298.15 K | 303.15 K | 308.15 K | 313.15 K | 318.15 K | 323.15 K
x1 = 0.05 | 38.1 | 37.85 | 37.64 | 37.39 | 37.15 | 36.9 | 36.69
x1 = 0.097 | 34.38 | 34.18 | 33.98 | 33.78 | 33.6 | 33.4 | 33.21
x1 = 0.258 | 32.47 | 32.24 | 32.03 | 31.79 | 31.57 | 31.34 | 31.1
x1 = 0.329 | 31.48 | 31.24 | 30.99 | 30.74 | 30.48 | 30.26 | 30.01
x1 = 0.389 | 30.64 | 30.37 | 30.08 | 29.81 | 29.55 | 29.32 | 29.04
x1 = 0.535 | 30.35 | 30.05 | 29.77 | 29.48 | 29.23 | 28.96 | 28.68
x1 = 0.623 | 29.63 | 29.34 | 29.02 | 28.74 | 28.48 | 28.18 | 27.88
x1 = 0.768 | 29.21 | 28.92 | 28.6 | 28.29 | 28.02 | 27.73 | 27.4
x1 = 0.864 | 28.71 | 28.41 | 28.07 | 27.76 | 27.47 | 27.18 | 26.84
x1 = 0.899 | 28.07 | 27.75 | 27.43 | 27.11 | 26.77 | 26.45 | 26.15
x1 = 1 | 27.63 | 27.3 | 26.98 | 26.61 | 26.31 | 25.96 | 25.63
